This test relates to skin hydration level. Briefly: Skin hydration, Corneometer CM 825. Conditions: BPO-047 variants, 8% glycerin, 2% sodium PCA. It is filed as in vivo, human. The procedure:
Healthy subjects were applied with single dose of formulations as shown in Example 14. Skin hydration is measured using a Corneometer® CM 825 instrument. (Courage+Khazaka, Koln, Germany). The measuring principle of the Corneometer® CM 825 is based on capacitance measurement of dielectric medium. Any change in the dielectric constant due to skin surface hydration alters the capacitance of a measuring capacitor. It is capable of detecting even slight changes in the skin hydration level.
Skin hydration level is assessed at baseline (fifteen minutes after each subject washed the left and right forearms) with the Corneometer® CM 825. The formulations are applied in designated chambers under occlusion for 6 hours which are then removed and the skin cleaned. Hydration is then measured one hour later.
Study protocol: The study was performed in a temperature controlled room (20-24° C.). Subjects washed their arms with water (no soap) and dried their arms with dry paper towel. Formulations were applied using test chambers. The location of each chamber within the stripe was marked once applied (maximum of 3 stripes on each arm). Each stripe contained only one formulation. One stripe served as a control, non treated area. […] Skin hydration level was assessed at baseline T=0 (minimum 15 minutes following rinse), using the Corneometer® CM 825, and tested based on study design. […]

In the case of `OCC(O)CO` [glycerin], the “hydration effect (Corneometer)” value is “main contributor to the hydration effect”. For the compound `O=C1CCC(C(=O)[O-])N1.[Na+]` (centres unmarked) [Sodium PCA, sodium salt of 2-pyrrolidone-5-carboxylic acid], the “hydration effect (Corneometer)” value is given as “increases hydration but to a lesser extent”.

Values taken from patent US9439857B2, “Foam containing benzoyl peroxide” (Foamix Pharmaceuticals Ltd., priority 2007, dated 2016).
